How the values were obtained:
Assay in all cases: relative viability (nuclei count vs DMSO), 5 days (fraction); higher = more cells survive
CUDC-101 + AZD7762 = compound: C#Cc1cccc(Nc2ncnc3cc(OC)c(OCCCCCCC(=O)NO)cc23)c1 [CUDC-101] + NC(=O)Nc1cc(-c2cccc(F)c2)sc1C(=O)N[C@H]1CCCNC1 [AZD7762] (partner 0.2 µM)
Summary of the method: (§1)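 Lung cancer cell lines in 1536-well plates got either a single drug or a fixed anchor-drug dose together with five library-drug doses (not always all listed) in √10 steps, by pin tool, on the day after seeding. Nuclei were counted after 5 days, and relative viability is the treated-to-vehicle ratio of nuclei counts. Values are medians of duplicate plates.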

NVP-TAE684 + Phenformin = compound: COc1cc(N2CCC(N3CCN(C)CC3)CC2)ccc1Nc1ncc(Cl)c(Nc2ccccc2S(=O)(=O)C(C)C)n1 [NVP-TAE684] + N=C(N)NC(=N)NCCc1ccccc1 [Phenformin] (partner 250 µM)
Summary of the method: as §1

Vandetanib + Foretinib = compound: COc1cc2/c(=N/c3ccc(Br)cc3F)nc[nH]c2cc1OCC1CCN(C)CC1 [Vandetanib] + COc1cc2c(Oc3ccc(NC(=O)C4(C(=O)Nc5ccc(F)cc5)CC4)cc3F)ccnc2cc1OCCCN1CCOCC1 [Foretinib] (partner 0.25 µM)
Summary of the method: as §1

Vandetanib + Olaparib = compound: COc1cc2/c(=N/c3ccc(Br)cc3F)nc[nH]c2cc1OCC1CCN(C)CC1 [Vandetanib] + O=C(c1cc(Cc2n[nH]c(=O)c3ccccc23)ccc1F)N1CCN(C(=O)C2CC2)CC1 [Olaparib] (partner 8 µM)
Summary of the method: as §1

Row | Cell Line | relative viability (CUDC-101 + AZD7762; first compound 0.01 µM) | relative viability (CUDC-101 + AZD7762; first compound 0.03162 µM) | relative viability (CUDC-101 + AZD7762; first compound 0.1 µM) | relative viability (CUDC-101 + AZD7762; first compound 0.3162 µM) | relative viability (CUDC-101 + AZD7762; first compound 1 µM) | relative viability (NVP-TAE684 + Phenformin; first compound 0.2 µM) | relative viability (NVP-TAE684 + Phenformin; first compound 0.6325 µM) | relative viability (NVP-TAE684 + Phenformin; first compound 2 µM) | relative viability (Vandetanib + Foretinib; first compound 0.02 µM) | relative viability (Vandetanib + Foretinib; first compound 0.06325 µM) | relative viability (Vandetanib + Foretinib; first compound 0.2 µM) | relative viability (Vandetanib + Foretinib; first compound 0.6325 µM) | relative viability (Vandetanib + Foretinib; first compound 2 µM) | relative viability (Vandetanib + Olaparib; first compound 0.02 µM) | relative viability (Vandetanib + Olaparib; first compound 0.06325 µM) | relative viability (Vandetanib + Olaparib; first compound 0.2 µM) | relative viability (Vandetanib + Olaparib; first compound 0.6325 µM) | relative viability (Vandetanib + Olaparib; first compound 2 µM)
1 | CAL-12T | 0.668 | 0.567 | 0.617 | 0.536 | 0.601 | 0.365 | 0.472 | 0.117 | 1.13 | 1.05 | 0.217 | 1.31 | 0.552 | 0.663 | 0.692 | 0.765 | 0.676 | 0.65
2 | ABC-1 | 0.889 | 0.807 | 0.763 | 0.852 | 0.334 | 0.218 | 0.226 | 0.122 | 0.971 | 1.03 | 0.28 | 1 | 0.854 | 0.538 | 0.617 | 0.774 | 0.904 | 0.726
3 | NCI-H1755 | 0.387 | 0.396 | 0.463 | 0.43 | 0.317 | 0.631 | 0.537 | 0.512 | 0.9 | 0.884 | 0.9 | 0.956 | 0.868 | 0.917 | 0.863 | 0.848 | 0.822 | 0.863
4 | NCI-H2126 | 1.01 | 0.98 | 0.939 | 0.945 | 0.943 | 0.53 | 0.468 | 0.361 | 1.17 | 1.16 | 1.11 | 1.14 | 1.11 | 0.883 | 0.888 | 0.818 | 0.923 | 0.88
5 | NCI-H650 | 1.25 | 0.835 | 1.03 | 0.968 | 0.848 | 0.462 | 0.371 | 0.325 | 1.04 | 1.03 | – | 1.02 | 0.98 | 0.359 | 0.361 | 0.392 | 0.409 | 0.445
6 | 201T | 0.617 | 0.646 | 0.613 | 0.614 | 0.39 | 0.421 | 0.437 | 0.38 | 1.08 | 0.996 | 1.06 | 1.15 | 1 | 0.79 | 0.829 | 0.796 | 0.791 | 0.817
7 | LU99A | 0.301 | 0.297 | 0.247 | 0.198 | 0.104 | 0.912 | 0.886 | 0.659 | 0.842 | 0.757 | 0.878 | 0.783 | 0.823 | 0.251 | 0.301 | 0.173 | 0.209 | 0.272
8 | NCI-H647 | 0.555 | 0.376 | 0.567 | 0.403 | 0.176 | 0.309 | 0.423 | 0.189 | 1.17 | 1.2 | 0.259 | 1.35 | 1.21 | 0.626 | 0.633 | 0.547 | 0.502 | 0.454
9 | LC-2-ad | 0.904 | 0.858 | 0.824 | 0.778 | 0.581 | 0.574 | 0.5 | 0.456 | 1 | 0.854 | 0.939 | 0.801 | 0.656 | 0.673 | 0.711 | 0.695 | 0.792 | 0.714
10 | LK-2 | 0.508 | 0.422 | 0.336 | 0.263 | 0.0851 | 0.364 | 0.238 | 0.233 | 1.19 | 1.16 | 0.88 | 1.22 | 1.08 | 0.846 | 0.71 | 0.724 | 0.72 | 0.669
11 | NCI-H1975 | 0.749 | 0.743 | 0.665 | 0.761 | 0.722 | 0.422 | 0.367 | 0.24 | 0.908 | 0.901 | 0.136 | 0.842 | 0.912 | 0.807 | 0.733 | 0.795 | 0.684 | 0.716

Reference: the supplement of paper PMC10307832
